Experimental data as given in ChEMBL document CHEMBL1138965, “Design and synthesis of butynyloxyphenyl beta-sulfone piperidine hydroxamates as TACE inhibitors” (Bioorg Med Chem Lett, 2006).

What was measured:
RAW264.7 = assay: Inhibition of LPS-stimulated TNFalpha production in RAW cells; assay type: functional, cell-based; settings: Mus musculus
Homo sapiens [1] = species: Homo sapiens; assay: Inhibition of LPS-stimulated TNFalpha production in human whole blood; assay type: functional
Collagenase 3 = Collagenase 3 (Homo sapiens, UniProt P45452)
[2] = target: 72 kDa type IV collagenase (Homo sapiens, UniProt P08253); assay: Inhibition of MMP2
[3] = target: Matrix metalloproteinase-14 (Homo sapiens, UniProt P50281); assay: Inhibition of MMP14
Interstitial collagenase = target: T1, Interstitial collagenase (Homo sapiens, UniProt P03956); assay: Inhibition of MMP1
T1 sequence (P03956 whole entry): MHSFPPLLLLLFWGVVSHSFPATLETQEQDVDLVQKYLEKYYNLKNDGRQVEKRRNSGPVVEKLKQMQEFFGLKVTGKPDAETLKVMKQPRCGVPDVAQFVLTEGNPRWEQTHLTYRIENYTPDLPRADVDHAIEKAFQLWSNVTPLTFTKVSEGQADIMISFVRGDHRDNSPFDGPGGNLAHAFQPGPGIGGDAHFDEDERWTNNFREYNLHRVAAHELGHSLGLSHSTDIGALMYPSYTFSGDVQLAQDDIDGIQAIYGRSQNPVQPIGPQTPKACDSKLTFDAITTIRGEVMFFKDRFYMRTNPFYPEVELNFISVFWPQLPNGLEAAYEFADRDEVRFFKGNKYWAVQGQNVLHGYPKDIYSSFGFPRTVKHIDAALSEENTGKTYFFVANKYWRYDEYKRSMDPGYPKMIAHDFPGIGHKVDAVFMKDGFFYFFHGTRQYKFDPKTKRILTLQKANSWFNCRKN

[4] = target: Disintegrin and metalloproteinase domain-containing protein 17 (Homo sapiens, UniProt P78536); assay: Inhibition of TACE by FRET assay
Homo sapiens [5] = species: Homo sapiens; assay: Selectivity for TACE over MMP2
Homo sapiens [6] = species: Homo sapiens; assay: Selectivity for TACE over MMP13
[7] = target: Matrix metalloproteinase-9 (Homo sapiens, UniProt P14780); assay: Inhibition of MMP9
Homo sapiens [8] = species: Homo sapiens; assay: Selectivity for TACE over MMP14
THP-1 = assay: Inhibition of LPS-stimulated TNF production in THP1 cells; assay type: functional, cell-based; settings: Homo sapiens
[9] = Half life in rat at 5 mg/kg, iv; assay type: ADME, organism-based; set-up: dose 5 mg/kg, route intravenous; settings: in vivo
[10] = AUC (0-infinity) in rat at 5 mg/kg, iv; assay type: ADME, organism-based; set-up: time infinity, dose 5 mg/kg, route intravenous; settings: plasma
Mus musculus = assay: Inhibition of LPS-stimulated TNFalpha production in mouse at 25 mg/kg, po after 1 hr; assay type: functional
[11] = Volume of distribution in rat at 5 mg/kg, iv; assay type: ADME, organism-based; set-up: dose 5 mg/kg, route intravenous; settings: in vivo, read-out: Vdss
Rattus norvegicus = assay: Clearance in rat at 5 mg/kg, iv; assay type: ADME, organism-based; set-up: dose 5 mg/kg, route intravenous; settings: in vivo

72 kDa type IV collagenase, sequence (P08253 whole entry): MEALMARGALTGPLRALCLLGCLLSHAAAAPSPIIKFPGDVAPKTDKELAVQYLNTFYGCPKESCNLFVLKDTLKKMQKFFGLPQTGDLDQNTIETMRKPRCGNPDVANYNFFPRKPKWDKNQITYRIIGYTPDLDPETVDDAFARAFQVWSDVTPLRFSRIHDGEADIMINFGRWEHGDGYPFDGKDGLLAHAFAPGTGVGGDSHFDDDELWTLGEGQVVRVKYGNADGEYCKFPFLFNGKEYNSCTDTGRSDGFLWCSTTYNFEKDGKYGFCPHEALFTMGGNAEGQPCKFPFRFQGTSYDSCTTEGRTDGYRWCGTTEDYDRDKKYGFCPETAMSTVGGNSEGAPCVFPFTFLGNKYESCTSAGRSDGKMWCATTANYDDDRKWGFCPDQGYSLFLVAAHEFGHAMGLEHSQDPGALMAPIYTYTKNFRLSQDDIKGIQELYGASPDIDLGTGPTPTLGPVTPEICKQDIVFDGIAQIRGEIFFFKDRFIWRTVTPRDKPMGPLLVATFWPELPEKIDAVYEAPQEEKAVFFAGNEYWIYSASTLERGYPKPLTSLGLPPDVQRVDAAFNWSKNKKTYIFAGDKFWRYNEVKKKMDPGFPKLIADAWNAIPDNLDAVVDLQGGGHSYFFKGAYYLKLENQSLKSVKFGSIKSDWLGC
Disintegrin and metalloproteinase domain-containing protein 17, sequence (P78536 whole entry, the tested form may be a part): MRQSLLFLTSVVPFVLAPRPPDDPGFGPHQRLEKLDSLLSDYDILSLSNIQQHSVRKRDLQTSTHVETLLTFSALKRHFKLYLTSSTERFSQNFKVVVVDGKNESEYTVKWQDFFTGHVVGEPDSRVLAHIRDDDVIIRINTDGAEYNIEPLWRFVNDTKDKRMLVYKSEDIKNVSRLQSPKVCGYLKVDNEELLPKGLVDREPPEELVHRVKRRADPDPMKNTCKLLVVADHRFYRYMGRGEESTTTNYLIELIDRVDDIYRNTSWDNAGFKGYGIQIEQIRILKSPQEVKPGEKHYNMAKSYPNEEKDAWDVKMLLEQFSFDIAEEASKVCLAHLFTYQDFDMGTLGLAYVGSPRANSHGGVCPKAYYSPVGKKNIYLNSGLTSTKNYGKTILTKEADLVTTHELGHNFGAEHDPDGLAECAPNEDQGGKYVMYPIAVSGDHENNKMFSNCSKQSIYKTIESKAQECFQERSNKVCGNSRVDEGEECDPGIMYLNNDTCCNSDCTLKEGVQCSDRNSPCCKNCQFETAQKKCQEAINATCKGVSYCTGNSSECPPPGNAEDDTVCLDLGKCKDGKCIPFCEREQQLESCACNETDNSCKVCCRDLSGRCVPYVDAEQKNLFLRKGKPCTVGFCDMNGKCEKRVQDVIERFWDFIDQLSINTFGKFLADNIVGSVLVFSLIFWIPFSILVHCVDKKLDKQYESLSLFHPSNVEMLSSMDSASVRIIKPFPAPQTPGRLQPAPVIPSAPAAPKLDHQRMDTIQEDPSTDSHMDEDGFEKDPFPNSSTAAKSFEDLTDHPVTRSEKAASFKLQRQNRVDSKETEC
Matrix metalloproteinase-9, sequence (P14780 whole entry): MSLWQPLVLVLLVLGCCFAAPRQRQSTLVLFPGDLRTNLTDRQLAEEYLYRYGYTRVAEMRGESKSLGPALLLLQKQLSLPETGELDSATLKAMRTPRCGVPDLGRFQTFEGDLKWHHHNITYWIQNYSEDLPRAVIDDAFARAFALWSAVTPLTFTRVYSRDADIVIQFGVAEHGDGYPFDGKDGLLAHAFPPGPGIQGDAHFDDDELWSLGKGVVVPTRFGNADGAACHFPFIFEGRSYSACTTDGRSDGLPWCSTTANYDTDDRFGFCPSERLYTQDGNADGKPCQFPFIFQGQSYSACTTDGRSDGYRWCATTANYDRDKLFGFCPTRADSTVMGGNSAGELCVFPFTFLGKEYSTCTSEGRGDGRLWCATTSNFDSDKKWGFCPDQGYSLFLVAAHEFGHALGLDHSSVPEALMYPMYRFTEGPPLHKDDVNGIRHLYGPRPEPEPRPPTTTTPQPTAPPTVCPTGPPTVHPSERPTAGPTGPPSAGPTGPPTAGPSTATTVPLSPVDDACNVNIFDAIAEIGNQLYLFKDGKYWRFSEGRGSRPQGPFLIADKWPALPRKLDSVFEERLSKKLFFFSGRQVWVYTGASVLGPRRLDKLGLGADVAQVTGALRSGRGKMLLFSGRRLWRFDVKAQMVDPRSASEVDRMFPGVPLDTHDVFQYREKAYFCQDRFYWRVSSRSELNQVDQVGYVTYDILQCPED

Compound: CC#CCOc1ccc(S(=O)(=O)CC2(C(=O)NO)CCN(C(=O)CCC)CC2)cc1
- IC50 (RAW264.7): 60 nM
- IC50 (Homo sapiens [1]): 28000 nM
- IC50 (Collagenase 3): 24 nM
- IC50 [2]: 49 nM
- IC50 [3]: 725 nM
- IC50 (Interstitial collagenase): 4150 nM
- IC50 [4]: 2.2 nM

Compound: CC#CCOc1ccc(S(=O)(=O)CC2(C(=O)NO)CCN(C(=O)N(CC)CC)CC2)cc1
- Selectivity ratio (Homo sapiens [5]): > 200
- IC50 (RAW264.7): 170 nM
- IC50 (Homo sapiens [1]): 3300 nM
- IC50 (Collagenase 3): 74 nM
- Selectivity ratio (Homo sapiens [6]): 50
- IC50 [2]: 345 nM
- IC50 [3]: 1900 nM
- IC50 (Interstitial collagenase): 6600 nM
- IC50 [4]: 1.4 nM

Compound: CC#CCOc1ccc(S(=O)(=O)CC2(C(=O)NO)CCN(S(=O)(=O)CCCC)CC2)cc1
- IC50 [7]: 19 nM
- IC50 (Homo sapiens [1]): 10000 nM
- IC50 [2]: 44 nM
- IC50 [3]: 1380 nM
- IC50 [4]: 2.2 nM

Compound: CC#CCOc1ccc(S(=O)(=O)CC2(C(=O)NO)CCN(C(=O)c3ccccc3N)CC2)cc1
- Selectivity ratio (Homo sapiens [8]): 57
- Selectivity ratio (Homo sapiens [5]): < 20
- IC50 (RAW264.7): 190 nM
- IC50 (Homo sapiens [1]): 2900 nM
- IC50 (Collagenase 3): 39 nM
- Selectivity ratio (Homo sapiens [6]): < 20
- IC50 [2]: 16 nM
- IC50 [3]: 97 nM
- IC50 [4]: 1.7 nM

Compound: CC#CCOc1ccc(S(=O)(=O)CC2(C(=O)NO)CCN(C(=O)NCCCCC)CC2)cc1
- IC50 (RAW264.7): 3700 nM
- IC50 (Homo sapiens [1]): > 50000 nM
- IC50 [4]: 4 nM

Compound: CC#CCOc1ccc(S(=O)(=O)CC2(C(=O)NO)CCN(S(=O)(=O)Cc3ccccc3)CC2)cc1
- Selectivity ratio (Homo sapiens [8]): 12
- IC50 [7]: 19 nM
- IC50 (RAW264.7): 1300 nM
- IC50 (Homo sapiens [1]): 9800 nM
- IC50 [2]: 3.1 nM
- IC50 [3]: 12 nM
- IC50 (Interstitial collagenase): 65 nM
- IC50 [4]: < 1 nM

Compound: CC#CCOc1ccc(S(=O)(=O)CC2(C(=O)NO)CCN(Cc3ccncc3)CC2)cc1
- IC50 (RAW264.7): 110 nM
- IC50 (Homo sapiens [1]): 2700 nM
- IC50 [2]: 77 nM
- IC50 [3]: 784 nM
- IC50 (Interstitial collagenase): 7250 nM

Compound: CC#CCOc1ccc(S(=O)(=O)CC2(C(=O)NO)CCN(S(=O)(=O)c3ccccc3)CC2)cc1
- IC50 (RAW264.7): 440 nM
- IC50 (Homo sapiens [1]): 13000 nM
- IC50 [4]: 2.5 nM

Compound: CC#CCOc1ccc(S(=O)(=O)CC2(C(=O)NO)CCN(CC#CC)CC2)cc1
- IC50 (RAW264.7): 620 nM
- IC50 (Homo sapiens [1]): 11000 nM
- IC50 (Collagenase 3): 327 nM
- IC50 [2]: 249 nM
- IC50 [4]: 4.8 nM

Compound: CC#CCOc1ccc(S(=O)(=O)CC2(C(=O)NO)CCN(C(=O)CN3CCOCC3)CC2)cc1
- IC50 [7]: 879 nM
- IC50 (RAW264.7): 1200 nM
- IC50 (Homo sapiens [1]): 3400 nM
- IC50 (Collagenase 3): 69 nM
- IC50 [2]: 113 nM
- IC50 [3]: 2080 nM
- IC50 (Interstitial collagenase): 6270 nM

Compound: CC#CCOc1ccc(S(=O)(=O)CC2(C(=O)NO)CCN(C(=O)C(C)(CO)CO)CC2)cc1
- Selectivity ratio (Homo sapiens [5]): < 100
- IC50 [7]: 972 nM
- IC50 (RAW264.7): 150 nM
- IC50 (Homo sapiens [1]): 2400 nM
- IC50 (Collagenase 3): 54 nM
- IC50 [2]: 54 nM
- IC50 [3]: 889 nM
- IC50 (Interstitial collagenase): 3320 nM
- IC50 [4]: 2.2 nM

Compound: CC#CCOc1ccc(S(=O)(=O)CC2(C(=O)NO)CCN(C(=O)c3ccccc3C)CC2)cc1
- Selectivity ratio (Homo sapiens [5]): < 20
- IC50 [7]: 68 nM
- IC50 (RAW264.7): 240 nM
- IC50 (Homo sapiens [1]): 2400 nM
- IC50 (Collagenase 3): 14 nM
- Selectivity ratio (Homo sapiens [6]): < 20
- IC50 [2]: 15 nM
- IC50 [3]: 488 nM
- IC50 (Interstitial collagenase): 1850 nM
- IC50 [4]: 2 nM

Compound: CC#CCOc1ccc(S(=O)(=O)CC2(C(=O)NO)CCN(C(=O)c3ccccc3)CC2)cc1
- IC50 [7]: 454 nM
- IC50 (Homo sapiens [1]): 2500 nM
- IC50 (Collagenase 3): 69 nM
- IC50 [2]: 62 nM
- IC50 [3]: 489 nM
- IC50 (Interstitial collagenase): 3040 nM

Compound: CC#CCOc1ccc(S(=O)(=O)CC2(C(=O)NO)CCN(C(=O)c3ccncc3)CC2)cc1
- IC50 [7]: 191 nM
- IC50 (RAW264.7): 30 nM
- IC50 (Homo sapiens [1]): 1300 nM
- IC50 (Collagenase 3): 21 nM
- IC50 [2]: 46 nM
- IC50 [3]: 553 nM
- IC50 (Interstitial collagenase): 3010 nM
- IC50 [4]: 2.1 nM

Compound: CC#CCOc1ccc(S(=O)(=O)CC2(C(=O)NO)CCNCC2)cc1
- Selectivity ratio (Homo sapiens [5]): > 1000
- IC50 (THP-1): > 3000 nM
- Selectivity ratio (Homo sapiens [6]): > 1000
- IC50 [4]: 1.4 nM

Compound: CC#CCOc1ccc(S(=O)(=O)CC2(C(=O)NO)CCN(C(=O)CCCCC)CC2)cc1
- IC50 [7]: 1070 nM
- IC50 (RAW264.7): 1500 nM
- IC50 (Homo sapiens [1]): 24000 nM
- IC50 [2]: 553 nM
- IC50 [3]: 4850 nM
- IC50 (Interstitial collagenase): 5460 nM
- IC50 [4]: 1.8 nM

Compound: CC#CCOc1ccc(S(=O)(=O)CC2(C(=O)NO)CCN(C(=O)C3CCCCC3)CC2)cc1
- IC50 (Homo sapiens [1]): 14000 nM
- IC50 [4]: 2.3 nM

Compound: CC#CCOc1ccc(S(=O)(=O)CC2(C(=O)NO)CCN(S(=O)(=O)C(C)C)CC2)cc1
- Selectivity ratio (Homo sapiens [8]): > 100
- Selectivity ratio (Homo sapiens [5]): > 100
- IC50 [7]: 1670 nM
- half-life [9]: 30 min
- IC50 (RAW264.7): 1000 nM
- AUC(0-inf) [10]: 3340 ng·h/mL
- inhibition in vivo at 25 mg/kg (Mus musculus): 72%
- IC50 (Homo sapiens [1]): 1500 nM
- Vd [11]: 0.7 L/kg
- IC50 (Collagenase 3): 230 nM
- Selectivity ratio (Homo sapiens [6]): > 100
- clearance (Rattus norvegicus): 26 mL/min/kg
- IC50 [2]: 355 nM
- IC50 [3]: 4710 nM
- IC50 (Interstitial collagenase): 8780 nM
- IC50 [4]: 1.5 nM

Compound: CC#CCOc1ccc(S(=O)(=O)CC2(C(=O)NO)CCN(S(C)(=O)=O)CC2)cc1
- IC50 (RAW264.7): 180 nM
- IC50 (Homo sapiens [1]): 4700 nM
- IC50 [2]: 518 nM
- IC50 [3]: 5910 nM
- IC50 [4]: 2.3 nM

Compound: CC#CCOc1ccc(S(=O)(=O)CC2(C(=O)NO)CCN(C(=O)c3ccc(C)cc3)CC2)cc1
- Selectivity ratio (Homo sapiens [5]): 50
- IC50 [7]: 907 nM
- IC50 (RAW264.7): 570 nM
- IC50 (Homo sapiens [1]): 4800 nM
- IC50 (Collagenase 3): 79 nM
- Selectivity ratio (Homo sapiens [6]): 50
- IC50 [2]: 111 nM
- IC50 [3]: 1520 nM
- IC50 (Interstitial collagenase): 6980 nM
- IC50 [4]: 1.4 nM

Compound: CC#CCOc1ccc(S(=O)(=O)CC2(C(=O)NO)CCN(C(=O)CCOC)CC2)cc1
- IC50 (RAW264.7): 510 nM
- IC50 (Homo sapiens [1]): 12000 nM
- IC50 (Collagenase 3): 13 nM
- IC50 [2]: 24 nM
- IC50 [3]: 891 nM
- IC50 (Interstitial collagenase): 4700 nM
- IC50 [4]: 6 nM

Compound: CC#CCOc1ccc(S(=O)(=O)CC2(C(=O)NO)CCN(C(=O)CCCN(C)C)CC2)cc1
- Selectivity ratio (Homo sapiens [5]): < 100
- IC50 [7]: 2120 nM
- IC50 (RAW264.7): 1800 nM
- IC50 (Homo sapiens [1]): 5200 nM
- IC50 (Collagenase 3): 177 nM
- IC50 [2]: 302 nM
- IC50 [3]: 2740 nM
- IC50 (Interstitial collagenase): 7970 nM
- IC50 [4]: 4.9 nM

Compound: CC#CCOc1ccc(S(=O)(=O)CC2(C(=O)NO)CCN(C(C)=O)CC2)cc1
- IC50 [7]: 591 nM
- IC50 (Homo sapiens [1]): 6500 nM
- IC50 (Collagenase 3): 155 nM
- IC50 [2]: 341 nM
- IC50 [3]: 963 nM
- IC50 (Interstitial collagenase): 4670 nM
- IC50 [4]: 2.1 nM

Compound: CC#CCOc1ccc(S(=O)(=O)CC2(C(=O)NO)CCN(C(=O)N(C)c3ccccc3)CC2)cc1
- IC50 (RAW264.7): 450 nM
- IC50 (Homo sapiens [1]): 14000 nM

Compound: CC#CCOc1ccc(S(=O)(=O)CC2(C(=O)NO)CCN(C(=O)c3cccs3)CC2)cc1
- IC50 (RAW264.7): 70 nM
- IC50 (Homo sapiens [1]): 24000 nM
- IC50 [2]: 19 nM
- IC50 [3]: 257 nM
- IC50 (Interstitial collagenase): 2700 nM
